Test systems include MALME-3M melanoma; K-562 leukemia; OVCAR-3 ovarian; IGROV1 ovarian; SNB-75 CNS; ACHN renal; HOP-62 NSCLC; HL-60(TB) leukemia; SN12C renal; SF-268 CNS.
Common to all, as to test: growth of human tumour cells (NCI), 48 h

Several values for one entry are separate records, joined by “and”; a condition that tells them apart may be missing. Identical values can stand only once.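 How tested: cells in 96-well plates exposed to compound for 48 hours at five concentrations. Here, GI50 denotes the concentration required for 50% inhibition of growth. TGI denotes the concentration required for complete inhibition of growth.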 Some results are limits rather than exact numbers.

Take `O=C(NCCc1ccccc1)C(c1csc2ccccc12)N(C(=O)CCl)c1ccc(-c2cnco2)cc1` (centres undefined): the GI50 with MALME-3M melanoma is 0.146 µM; in the assay on K-562 leukemia, 0.509 µM; in the assay on OVCAR-3 ovarian, 0.156 µM; in the assay with IGROV1 ovarian it was 0.161 µM; in the assay with SNB-75 CNS, 0.502 µM; in the assay on ACHN renal, 0.139 µM. Besides, the GI50 with HOP-62 NSCLC was 0.347 µM; in the assay with HL-60(TB) leukemia it was 0.762 µM; in the assay on SN12C renal, 0.412 µM; in the assay with SF-268 CNS, 0.362 µM. Further, the TGI was 0.308 µM in the assay with MALME-3M melanoma; > 20.7 µM in the assay with K-562 leukemia; 0.828 µM in the assay on OVCAR-3 ovarian; 0.331 µM in the assay with IGROV1 ovarian; 0.99 µM in the assay on SNB-75 CNS; 0.537 µM in the assay on ACHN renal. Moreover, the TGI in the assay with HOP-62 NSCLC amounted to 1.07 µM; with HL-60(TB) leukemia, 2.8 µM; with SN12C renal, 2.03 µM; in the assay with SF-268 CNS it was 0.958 µM.

In the case of `CCOc1cccc2cccnc12`, the TGI in the assay on MALME-3M melanoma, with K-562 leukemia, in the assay with OVCAR-3 ovarian, in the assay on IGROV1 ovarian, in the assay on SNB-75 CNS and in the assay with ACHN renal was > 100 µM throughout. Moreover, the TGI in the assay on HOP-62 NSCLC, in the assay on HL-60(TB) leukemia, in the assay with SN12C renal and in the assay on SF-268 CNS was > 100 µM throughout.

In the case of `COC(=O)C1=C(SC)SC2(C(=O)OC)C3C=C(C)C4C(N13)C42C(=O)OC` (centres undefined), the TGI in the assay with MALME-3M melanoma, in the assay with K-562 leukemia, in the assay on OVCAR-3 ovarian, in the assay on IGROV1 ovarian, with SNB-75 CNS and with ACHN renal was > 100 µM in each case. Also, the TGI in the assay on HOP-62 NSCLC, in the assay on HL-60(TB) leukemia, with SN12C renal and in the assay on SF-268 CNS was > 100 µM in each case.

For `N#CC1(Cc2ccccc2Cl)c2ccccc2C=CN1C(=O)c1ccccc1` (centres undefined), the TGI in the assay with MALME-3M melanoma, in the assay with K-562 leukemia, with OVCAR-3 ovarian, in the assay with IGROV1 ovarian, in the assay with SNB-75 CNS and in the assay on ACHN renal was > 100 µM throughout. In addition, the TGI in the assay with HOP-62 NSCLC, in the assay with HL-60(TB) leukemia, in the assay on SN12C renal and in the assay on SF-268 CNS was > 100 µM each time.

`Cc1cc(C)c2nc(Nc3nc(C)c(C)c(=O)[nH]3)nc(C)c2c1`: the GI50 in the assay with MALME-3M melanoma was 1.61 µM; in the assay on K-562 leukemia, 2.53 µM; with OVCAR-3 ovarian, 3.59 µM; in the assay with IGROV1 ovarian, 2.85 µM; with SNB-75 CNS, 2.9 µM; in the assay with ACHN renal, 3.06 µM. Besides, the GI50 with HOP-62 NSCLC was 1.96 µM; in the assay with HL-60(TB) leukemia it was 2.53 µM; with SN12C renal, 2.27 µM; in the assay on SF-268 CNS it was 2.82 µM. Besides, the TGI in the assay on MALME-3M melanoma stood at 7.48 µM; with K-562 leukemia it was 11.1 µM; in the assay on OVCAR-3 ovarian, 13.1 µM; in the assay on IGROV1 ovarian it was 12.8 µM; in the assay on SNB-75 CNS it was 13.6 µM; in the assay with ACHN renal it was 11.6 µM. Besides, the TGI in the assay on HOP-62 NSCLC was found to be 8.82 µM; in the assay with HL-60(TB) leukemia, 6.98 µM; in the assay with SN12C renal it was 12 µM; in the assay on SF-268 CNS, 13.8 µM.

In the case of `O=c1cc(N2CCOCC2)oc2c(-c3ccccc3)cccc12`, the GI50 in the assay with MALME-3M melanoma was 4.46 µM; with OVCAR-3 ovarian, 4.48 µM; with IGROV1 ovarian it was 3.65 µM; in the assay on SNB-75 CNS, 1.91 µM; with ACHN renal, 4.25 µM; in the assay on HOP-62 NSCLC, 5.41 µM. The GI50 in the assay on HL-60(TB) leukemia is 3.38 µM; in the assay on SN12C renal, 2.93 µM; in the assay on SF-268 CNS, 3.59 µM. Moreover, the TGI with MALME-3M melanoma was > 41.4 µM and 5.6 µM; in the assay with K-562 leukemia, > 100 µM and 79.7 µM; in the assay with OVCAR-3 ovarian, 40.3 µM and 43 µM; in the assay on IGROV1 ovarian it was > 34.4 µM and 12.3 µM; in the assay on SNB-75 CNS, 14.6 µM and 5.97 µM; in the assay on ACHN renal, > 100 µM. Moreover, the TGI in the assay on HOP-62 NSCLC was > 100 µM; with HL-60(TB) leukemia, 38.2 µM and > 100 µM; in the assay with SN12C renal, > 100 µM; in the assay with SF-268 CNS it was 53 µM and 14.2 µM.

Consider `O=C(O)CSc1ccn(Cc2ccccc2)c1`, for which the TGI with MALME-3M melanoma, in the assay with K-562 leukemia, in the assay on OVCAR-3 ovarian, in the assay on IGROV1 ovarian, in the assay with SNB-75 CNS and with ACHN renal was > 100 µM throughout. In addition, the TGI in the assay on HOP-62 NSCLC, in the assay with HL-60(TB) leukemia, in the assay on SN12C renal and in the assay on SF-268 CNS was > 100 µM each time.

In the case of `COc1ccc2c(c1)Cc1cc(N=[N+]([O-])c3ccc4c(c3)Cc3cc(OC)ccc3-4)ccc1-2`, the TGI in the assay with MALME-3M melanoma is > 100 µM; in the assay on K-562 leukemia it was > 100 µM; in the assay with OVCAR-3 ovarian it was > 100 µM; in the assay with IGROV1 ovarian, 55.2 µM; in the assay on SNB-75 CNS it was > 100 µM; in the assay on ACHN renal, > 100 µM. Moreover, the TGI with HOP-62 NSCLC, with HL-60(TB) leukemia, in the assay with SN12C renal and in the assay with SF-268 CNS was > 100 µM in each case.

Regarding `O=C(Nc1ccc(Cl)cc1Cl)c1c/c(=N\O)c2ccc(O)cc2o1`, the TGI in the assay on MALME-3M melanoma, with K-562 leukemia, in the assay with OVCAR-3 ovarian, with IGROV1 ovarian, in the assay with SNB-75 CNS and in the assay on ACHN renal was > 100 µM each time. Moreover, the TGI in the assay with HOP-62 NSCLC, in the assay on HL-60(TB) leukemia, in the assay on SN12C renal and in the assay on SF-268 CNS was > 100 µM throughout.

The values are drawn from PubChem BioAssay (NCI).
